Measured values published in a melting point compilation (Tetko et al.; mined from patent text by program, amines drawn as free bases though some values may be those of a salt).

SMILES | melting point
O=C(O)Cc1n[nH]c2c(=O)[nH]c3cc(Cl)ccc3c(=O)c12 | 297 to 300 °C
OC1(c2ccc(Cl)c(Cl)c2)c2ccccc2C2=NCCCN21 (stereo unspecified) | 267 to 269 °C
Cc1oc(-c2ccccc2)nc1Cc1cc2cc(C=O)ccc2o1 | 116 to 118 °C
CON(C)C(=O)Nc1c(C(=O)C2CCCCC2)[nH]c2cc(Cl)ccc12 | 208 to 210 °C
COC(=O)c1sccc1S(=O)(=O)N=C(N)NNc1nc(C)cc(C)n1 | 213 °C
Cc1cc(CNC(=O)c2nc3n(c(=O)c2O)CCN3C)ccc1F | 187 to 189 °C
O=C(CCc1ccccc1)Oc1n[nH]c(=O)c2nc3cc(Cl)cc(Cl)c3c(O)c12 | > 395 °C
CC1=C(C(=O)OC(C)C)C(c2cccc([N+](=O)[O-])c2)N(C(=O)N(C)C)C(=O)N1 (stereo unspecified) | 165 to 166 °C
Nc1cn(-c2cncnc2)nc1Cl | 146 to 148 °C
CCOC(=O)c1cnn(-c2ccccc2)c1NC(=O)Nc1ccccc1 | 184 to 185 °C
CC(C)(C)NC(=O)c1ccc(S(=O)(=O)N2C(=O)C(C)(c3ccccc3Cl)c3cc(O)ccc32)cc1 (stereo unspecified) | 262 °C
O=c1[nH]c2ccc(C(F)(F)F)cc2c(-c2cc(Cl)ccc2O)c1NCc1ccccc1 | 215 to 217 °C
CCOC(=O)c1nc(-c2ccc(F)cc2)c(CCCl)s1 | 81.5 to 82.5 °C
O=C(O)C1Cc2c([nH]c3ccccc23)CN1C(=S)SCc1ccc([N+](=O)[O-])cc1 (stereo unspecified) | 194 to 195 °C
CCOC(=O)c1c(CCl)nc2cc(OC)c(OC)cc2c1-c1ccc(F)cc1 | 147 to 148 °C
C=CCNc1cc(Oc2cc(Cl)c(Br)cc2Cl)c(Cl)cc1[N+](=O)[O-] | 102 °C
CS(=O)(=O)N(c1ccc([N+](=O)[O-])cn1)S(C)(=O)=O | 175 to 177 °C
COc1cccc(C(=O)N(C)C)c1-c1ccccc1 | 83 to 84 °C
CSc1nccn1CC(=O)O | 176 °C
Oc1ccc(Oc2ccccc2F)cc1 | 81.5 to 82 °C
CC(C)CCSC1CC(CO)OC1n1ccc(=O)[nH]c1=O (stereo unspecified) | 131 to 133 °C
Cc1c(SCCCSc2ccc3ncc([N+](=O)[O-])n3n2)ccnc1CCl | 155 to 156 °C
CC(C)N(Cc1ccccc1)CC(O)COc1cccc2[nH]cc(C=O)c12 (stereo unspecified) | 107 to 109 °C
CNC[C@@H]1CN(c2nc3c(cc2F)c(=O)c(C(=O)O)cn3C2CC2)C[C@@H]1F (relative stereo) | 230 to 240 °C
CCOC12CCC(=O)C3(C)Oc4c(OC)ccc5c4C31CCN(CCc1ccccc1)C2C5 (stereo unspecified) | 86 to 89 °C
CC1(C)CC2(CC(C)(C)N1O)OC1(CCCCCCCCCCC1)NC2=O | 236 to 238 °C

SMILES | melting point
Nc1ccc(Nc2ccc(S(=O)(=O)CCO)cc2[N+](=O)[O-])cc1S(=O)(=O)O | 204 °C
CCc1ccc(-c2ccc(CCc3ccc(C(F)(F)F)cc3)cc2)cc1 | 128 °C
CCCC1(O)CSC(=S)N1c1cccc(C)n1 (stereo unspecified) | 70 °C
CC(CCC(F)C(C)(C)O)C1CCC2C3CC=C4CC(O)CC(O)C4(C)C3CCC12C (stereo unspecified) | 156 to 158 °C
CN1CC[C@@]2(c3cccc(O)c3)C[C@@H](N=[N+]=[N-])CC[C@H]2C1 (racemic) | 139 to 140 °C
Clc1ccc2c(c1)C(c1ccccc1)=NCc1nnc(CN3CCCCC3)n1-2 | 202 to 203 °C
O=C(c1cc(=O)c2cc(O)ccc2[nH]1)N1CCC(Cc2ccc(F)cc2)CC1 | 190 °C
CCOP(=O)(NCc1cccc(-c2nc(=O)c3ccccc3s2)n1)OCC | 135 to 136 °C
CCOC(=O)c1c(N)c2cccnc2n(CC)c1=O | 205 to 208 °C
CCCN(CCC)CC1CCn2c(nc3ccccc32)S1 (stereo unspecified) | 82 to 84 °C
COc1ccc2c(c1)C(N1C(=O)c3ccccc3C1=O)C(=O)N2c1ccc(F)cc1 (stereo unspecified) | 208 to 210 °C
CNc1ccc2cccc(OCCOc3nccnc3N3CCNCC3)c2n1 | 54 to 56.5 °C
COC(=O)C(=Cc1ccc2c(c1)OCO2)C(=O)c1cccc(OCc2ccccc2)c1 | 116 to 118 °C
N#Cc1ccc2ccc(=O)n(CCN3CCC(N)CC3)c2c1 | 138 °C
CC1(C)Nc2ccccc2-c2c([N+](=O)[O-])cnn21 | 193 to 195 °C
NC1=Nc2cccc3c(=O)[nH]nc(c23)N1 | > 300 °C
O=C(CCS)NC1(C(=O)O)CCCC1 | 127 to 128 °C
CN1C(=O)C(F)N=C(c2ccccc2)c2cc(Cl)ccc21 (stereo unspecified) | 145 to 147 °C
CCOC(=O)C(C)(C)Oc1ccc(CCCC(=O)NN(Cc2cc(F)cc(F)c2)C(N)=O)cc1 | 108 to 109 °C
CCc1cn(C2CC(O)C(CS(=O)(=O)Cc3ccccc3)O2)c(=O)[nH]c1=O (stereo unspecified) | 232 to 233 °C
CC(O)Cc1cc2c(cc1C(=NNc1ncccn1)c1ccc([N+](=O)[O-])cc1)OCO2 (stereo unspecified) | 125 to 127 °C
Oc1ccc2c(c1)COc1c-2cc2ccc(O)cc2c1-c1cc(Cl)cc(Cl)c1 | 252 to 255 °C
Cc1ccc(-c2nc(N)n3nc(-c4ccco4)nc3n2)cc1 | > 275 °C
CC1(C)Cc2cc(Cl)ccc2C=[N+]1[O-] | 64.5 to 66.5 °C
CCCCNC1CC(C)(C)N(c2nc(N3CCOCC3)nc(N3CCOCC3)n2)C(C)(C)C1 | 82 to 87 °C
CC(C)(C)OC(=O)N1CCNC(=O)C1Sc1ccccc1 (stereo unspecified) | 138 to 140 °C

SMILES | melting point
Cc1ccc(Cc2cnc(NCCCNc3ncccc3Cl)[nH]c2=O)cn1 | 91 to 94 °C
O=C(Nc1ccc(F)cc1F)c1cncc(Sc2cccc([N+](=O)[O-])c2)n1 | 131 to 135 °C
C#Cc1ccc(C(=O)OC)nc1 | 40 to 45 °C
CCCN(CCC)C(=O)Cn1c(-c2cccc(Br)c2)nc2cccnc21 | 125 to 127 °C
C=C(C)C(=O)OCCCCOC(=O)/C=C/c1ccc(OC(=O)OCC)cc1 | 54 to 56 °C
O=C(NCCCn1ccnc1)c1ccoc1 | 127 to 129 °C
NC(=O)c1ccc(COc2ccc3c(c2)CCN(C2CCN(C4CCC4)CC2)C3=O)cc1 | 292 to 293 °C
Cn1c(COc2ccc(CC3SC(=O)NC3=O)cc2)nc2ccc(Oc3ccc(NC(=S)NC4CCCCC4)cc3)cc21 (stereo unspecified) | 173 to 174 °C
CC(=O)OC1CC2=CCC3C4CCC(C(C)CS(=O)(=O)c5ccccc5)C4(C)CCC3C2(C)C(OC(C)=O)C1 (stereo unspecified) | 104 °C
CCCc1nc(OC)c(N(C)C(=O)N2CCN(c3cc(OC)cc(OC)c3)CC2)cc1C | 106 to 107 °C
N#CCOc1ccc2cc(-c3ccc(-c4ccccc4)[nH]3)ccc2c1 | 142 °C
Cc1nn(C)c2nc(C(C)C)c(CO)c(-c3ccc(F)cc3)c12 | 166 to 168 °C
CCCCCCCOc1ccc(C(=O)Nc2ccccc2OCc2nnn[nH]2)cc1 | 148 to 150 °C
CN1c2ccc(C=C3SC(=O)NC3=O)cc2CCC1Cc1ccccc1 (stereo unspecified) | 214 to 217 °C
Fc1ccc(N2CCC(N3CCN(c4cccc5cccnc45)CC3)CC2)c2ncccc12 | 224 °C
COC(=O)C1Cc2c(n(C)c3ccccc23)CN1C(=S)SC (stereo unspecified) | 170 to 171 °C
COc1cc(N2CCC(N3CCCOCC3)CC2)ccc1Nc1ncc2ccc(-c3ccccc3OC)n2n1 | 75 to 82 °C
Nc1ccc(C(=O)OCCOC(=O)CC[C@@H](C(=O)O)n2c3ccccc3c3ccccc32)cc1 | 65 °C
CC1(C)Oc2ccc(CNc3ccc(Cl)cc3)cc2OC1=O | 97 to 98 °C
CCN(CC)C(=O)c1nn(-c2cccc(OC)c2)c(=O)c2c1c1ccc(Cl)cc1n2C | 208 °C
CC(C)C(F)(C(=O)O)c1ccc(Cl)cc1 (stereo unspecified) | 120 °C
CCCCCc1ccc2cc(Nc3ccc(O)cc3)ccc2c1 | 134 to 135 °C
CN(C)C=C(C#N)C(=O)Nc1ccccc1-n1cccc1 | 167 to 169 °C
COc1ccc(-c2ccc3c(n2)CCC(C)(C)C3=O)cc1 | 158 to 159 °C
CCc1nc(-c2ccc(N3CCN(C(=O)c4ccccc4C(F)(F)F)CC3)nn2)no1 | 204 °C
CC(C(O)c1ccc(OC(=O)c2ccc(CNC(C)(C)C)cc2)cc1)N1CCC(O)(c2ccccc2)CC1 (stereo unspecified) | 195 to 197 °C

SMILES | melting point
OCCOc1cccc2c1OCO2 | 56 to 57 °C
COc1cc(OC)nc(-n2nc(SC)n(N)c2=O)n1 | 198 °C
OCc1conc1-c1ccc(F)c(Cl)c1 | 87 to 88 °C
O=C(NCCN1CCN(C(c2ccc(F)cc2)c2ccccn2)CC1)C1CSC(c2cccnc2)N1 (stereo unspecified) | 144 to 146 °C
NC(=O)CNC(=O)c1cccc(-c2cccc3cc(Cc4cc(F)cc(Cl)c4)sc23)n1 | 200 to 201 °C
Clc1nc(Cl)c2cc(N3CCCCC3)ccc2n1 | 101 to 102 °C
N#Cc1cccc(C(=O)Nc2ccccc2N)c1 | 197 to 200 °C
CC1=NC(=Cc2ccc(C#N)cc2)C(=O)O1 | 192 to 193 °C
Nc1c2c(nc3ccccc13)CCc1cn(Cc3ccccc3)nc1-2 | 206 to 207 °C
NC(=O)c1ccc(CCCNCC(O)c2ccccc2)cc1 (stereo unspecified) | 106 to 108 °C
Cc1nc2c(N)nc3ccccc3c2n1C | 288 to 290 °C
Cc1cc(CSCCNC(=C[N+](=O)[O-])NCC(O)c2ccccc2)sc1CN(C)C (stereo unspecified) | 114 to 115 °C
COc1c(C)cc(NC(C)=O)c(Br)c1C | 152 to 153 °C
O=C1CC(C2CCCC2)CN1 (stereo unspecified) | 117 to 119 °C
O=C(NCc1cccs1)C12CC3CC(CC(O)(C3)C1)C2 | 140 to 141 °C
CCOC(=O)CNc1ccc2c(c1)CCC2 | 49 °C
CN1CCC(=O)C(C2c3ccccc3C=Cc3ccccc32)C1 (stereo unspecified) | 144 to 158 °C
COc1cc(C)nc(NC(=O)NS(=O)(=O)Cc2ccccc2-c2nnc(SC)o2)n1 | 194 to 196 °C
O=C(Nc1ccc(C(=O)N2Cc3ccccc3Cc3ccccc32)cc1)C1CC=CCC1 (stereo unspecified) | 234 to 236 °C
O=C1c2ccccc2COc2ccc(CCOC(c3ccccc3)(c3ccccc3)c3ccccc3)cc21 | 132 to 134 °C
CNc1ccc2c(c1)N1CCCN=C1S2 | 184 °C
COc1ccc(C=C(C#N)c2c[nH]c3ccccc23)cc1OC | 139 to 141 °C
O=C(O)CCn1ccn(C2CCc3ccccc3C2)c1=S (stereo unspecified) | 167 to 168 °C
